In PubChem BioAssay (NCI):
“And” between values parts separate entries of the source, which are not always exact repeats. Identical values can stand only once.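 The compound was tested at five concentrations on cells cultured in 96-well plates, with a 48-hour exposure period. GI50 = concentration required for 50% inhibition of growth. TGI is the concentration that stops growth completely.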 Where a SMILES comes first, the peptide text is derived from it. The star is where a group is joined. Cbz = O=C(OCc1ccccc1)*; Boc = CC(C)(C)OC(=O)*; OSu = O=C1CCC(=O)N1O*; Bn = c1ccc(C*)cc1

Columns and labels:
Test in all cases: DTP human tumour cell line panel, 48 h
[1] = system: NCI-H460 lung
[2] = system: PC-3 prostate
[3] = system: SF-295 CNS
[4] = system: UO-31 renal
[5] = system: KM12 colon
[6] = system: CCRF-CEM leukemia
[7] = system: HCT-116 colon
[8] = system: SK-OV-3 ovarian
[9] = system: HOP-62 NSCLC
[10] = system: SNB-19 CNS

Row | SMILES | TGI [1] | TGI [2] | TGI [3] | TGI [4] | TGI [5] | TGI [6] | TGI [7] | TGI [8] | TGI [9] | TGI [10] | GI50 [3] | GI50 [4] | GI50 [5] | GI50 [8] | GI50 [10] | GI50 [1] | GI50 [6]
1 | CC[C@@]12CCC(=S)N(CCSc3ccccc3)[C@@H]1c1c(n(S(=O)(=O)c3ccc(OC)cc3)c3ccccc13)CC2 | > 100 µM | > 100 µM | > 100 µM | > 100 µM | > 100 µM | > 100 µM | > 100 µM | > 100 µM | > 100 µM | > 100 µM |  |  |  |  |  |  | 
2 | COc1ccc2c(c1)CC[C@@H]1C2CC[C@]2(C)C(=C=CP(=O)(O)O)CCC12 (some centres undefined) | > 100 µM | > 100 µM | > 100 µM |  | > 100 µM |  | > 100 µM | > 100 µM | > 100 µM | > 100 µM |  |  |  |  |  |  | 
3 | O=S(=O)(O)c1cc(O)c(N=Nc2ccc3ccccc3c2O)c2ccccc12 |  | > 100 µM | > 100 µM | 65 µM | > 100 µM | > 100 µM | > 100 µM | > 100 µM | > 100 µM | > 100 µM |  |  |  |  |  |  | 
4 | c1ccc(-c2c(-c3[nH]c4ccccc4c3-c3ccccc3)[nH]c3ccccc23)cc1 | 8.57 µM | 10.6 µM | 14.9 µM | 12.7 µM | 11.8 µM | 14 µM | 13.4 µM | 21 µM | 5.03 µM | 19.3 µM |  |  |  |  |  |  | 
5 | O=C(O)C1(C(O)c2ccccc2)SCCCS1 (centres undefined) | > 10 µM | > 10 µM | > 10 µM | > 10 µM | > 10 µM | > 10 µM | > 10 µM | > 10 µM | > 10 µM | > 10 µM |  |  |  |  |  |  | 
6 | CSc1nc(C)c2c(n1)N(c1ccc(Cl)cc1)CC2 | > 100 µM | > 100 µM | > 100 µM |  | > 100 µM | > 100 µM | > 100 µM | > 100 µM | > 100 µM | > 100 µM |  |  |  |  |  |  | 
7 | COC(=O)C(=O)C(C(=O)C(=O)Nc1ccc(C)c(C)c1)c1nc2ccc([N+](=O)[O-])cc2[nH]c1=O (centres undefined) | > 100 µM | > 100 µM | > 100 µM | > 100 µM | > 100 µM | > 100 µM | > 100 µM | > 100 µM | > 100 µM | > 100 µM |  |  |  |  |  |  | 
8 | CCc1cc2c(c3c1CCCC3=O)CC1(C2)Cc2cc(CC)c3c(c2C1)C(=O)CCC3 | > 100 µM | > 100 µM | > 100 µM | > 100 µM | > 100 µM | > 100 µM | > 100 µM | > 100 µM | > 100 µM | > 100 µM |  |  |  |  |  |  | 
9 | CC(C)=CC(=O)c1c(C(=O)O)nc2ccccc2[n+]1[O-] | > 100 µM |  | > 100 µM | > 100 µM | > 100 µM | > 100 µM | > 100 µM | > 100 µM | > 100 µM | > 100 µM |  |  |  |  |  |  | 
10 | O=C(O)CCC1NC(/C(=C/c2ccccc2O)NC(=O)c2ccccc2)OC1=O (centres undefined) | > 100 µM | > 100 µM | > 100 µM | 45.8 µM | > 100 µM | > 100 µM | > 100 µM | > 100 µM | 62.4 µM | > 100 µM |  |  |  |  |  |  | 
11 | CN(/N=C\c1ccc2ccccc2c1)C1=NCCCN1 | 20.3 µM |  | 26.8 µM | 25.2 µM | 32.1 µM | 48.6 µM | 28.9 µM | 98.3 µM | 27.4 µM |  |  |  |  |  |  |  | 
12 | CC[C@@]1(O)C(=O)OCc2c1cc1n(c2=O)Cc2c-1nc1ccccc1c2C=Nc1ccccc1N[C@@H]1c2cc3c(cc2[C@@H](c2cc(OC)c(O)c(OC)c2)[C@H]2C(=O)OC[C@@H]21)OCO3 |  | > 65.8 µM | > 50 µM | 3.12 µM and 0.593 µM | > 41.6 µM and 8.08 µM | > 100 µM | 4.48 µM and 2.5 µM | 15.2 µM | 0.466 µM and 0.154 µM | > 52.5 µM | 0.149 µM and 0.134 µM | 0.129 µM and 0.0745 µM | 4.99 µM and 1.74 µM | 1.23 µM and 0.213 µM | 0.0869 µM and 0.0336 µM |  | 
13 | O=c1c2cc(I)ccc2nc(-c2cccs2)n1O | > 100 µM | > 100 µM | > 100 µM | > 100 µM | > 100 µM | 95.2 µM | > 100 µM |  | > 100 µM | 72 µM |  |  |  |  |  |  | 
14 | Cc1ncc(CSC(=N)N)n1Cc1ccccc1 | > 100 µM | > 100 µM | > 100 µM | > 100 µM | > 100 µM |  | > 100 µM | > 100 µM | > 100 µM | > 100 µM |  |  |  |  |  |  | 
15 | N#Cc1c(N)nc(Sc2ccccc2N)c(C#N)c1-c1ccccc1 | 50.6 µM | 33.3 µM |  | 34.3 µM | 94.8 µM |  | > 100 µM |  | > 100 µM | > 100 µM |  |  |  |  |  |  | 
16 | COc1cc2c(cc1OCCCOc1ccc(-c3cc4ccccc4c4ccccc34)cc1)N=C[C@@H]1CCCN1C2=O | 2.21 µM |  |  | 0.593 µM | 2.06 µM |  |  | 3.26 µM |  | 2.37 µM |  | 0.169 µM | 0.787 µM | 1.6 µM | 1.16 µM | 1.04 µM | 0.237 µM
17 | COc1ccc(/C=N/NC(=S)Nc2cc(C)ccc2OC)cc1 |  | > 100 µM | > 100 µM | > 100 µM | > 100 µM | > 100 µM | > 100 µM | > 100 µM | > 100 µM | > 100 µM |  |  |  |  |  |  | 
18 | CC(C)(C)OC(=O)NC(Cc1ccc(OCc2ccccc2)cc1)C(=O)NC(CCCCNC(=O)OCc1ccccc1)C(=O)NC(CCCCNC(=O)OCc1ccccc1)C(=O)ON1C(=O)CCC1=O (centres undefined) (Boc-Tyr(Bn)-Lys(Cbz)-Lys(Cbz)-OSu; configuration not given here) | > 100 µM |  | 72.1 µM | > 100 µM | > 100 µM | > 100 µM | 58.7 µM | > 100 µM | > 100 µM | 30.7 µM |  |  |  |  |  |  | 
19 | Cc1nc(Cc2n[nH]c(C)n2)n[nH]1 |  | > 100 µM | > 100 µM | > 100 µM | > 100 µM | > 100 µM | > 100 µM | > 100 µM | > 100 µM | > 100 µM |  |  |  |  |  |  | 
20 | O=C1/C(=C/c2ccc(Cl)cc2)Oc2ccccc21 | > 100 µM |  | > 100 µM | 30.4 µM | > 100 µM | > 100 µM | > 100 µM | > 100 µM | 53.3 µM | > 100 µM |  |  |  |  |  |  | 
